Data as given in DBAASP.
≈ marks a conversion by molar mass, not a printed value. Blank lines part the entries; values can stand above or below the compound they belong to.

Assays:
Assay in all cases: ≥ marks a high value that may be exact or a test limit, other limits are often not marked, values filed in µg/mL are converted to µM
Escherichia coli O157:H7 = system: Escherichia coli O157:H7
[1] = system: Acinetobacter baumannii ATCC 17978
Bacillus subtilis C626 = system: Bacillus subtilis C626
[2] = system: Staphylococcus aureus C622
[3] = system: Pectobacterium carotovorum
[4] = system: Salmonella enterica subsp. enterica serovar Typhi
Vibrio cholerae = system: Vibrio cholerae
Bacillus megaterium = system: Bacillus megaterium
[5] = system: Lysinibacillus sphaericus TISTR 678
[6] = system: Salmonella enterica subsp. enterica serovar Typhi ATCC 5784
[7] = system: Bacillus cereus ATCC 11778
[8] = system: Escherichia coli CCT 1457
[9] = system: Staphylococcus aureus CCT 2580
[10] = system: Pseudomonas aeruginosa ATCC 15422
[11] = system: Shigella flexneri ATCC 12022
[12] = system: Staphylococcus epidermidis
[13] = system: Escherichia coli ATCC 35218
Escherichia coli = system: Escherichia coli
[14] = system: Pseudomonas aeruginosa ATCC 27853
[15] = system: Salmonella typhimurium SL1344
[16] = system: Staphylococcus aureus ATCC 29213
[17] = system: Klebsiella pneumoniae XJ75297
[18] = system: Pseudomonas aeruginosa XJ75315
[19] = system: Escherichia coli ATCC 25922
[20] = system: Pseudomonas aeruginosa PAO1
Escherichia coli NIHJ = system: Escherichia coli NIHJ
[21] = system: Streptococcus pyogenes COOK
[22] = system: Staphylococcus aureus 209P
[23] = system: Bacillus subtilis ATCC 6633
[24] = system: Micrococcus luteus ATCC 9341
Cryptococcus neoformans = system: Cryptococcus neoformans
Staphylococcus aureus MR = system: Staphylococcus aureus MR
Sporothrix schenckii = system: Sporothrix schenckii
Aspergillus fumigatus = system: Aspergillus fumigatus
Candida albicans = system: Candida albicans
[25] = system: Staphylococcus aureus ATCC 9144
[26] = system: Trichophyton mentagrophytes
[27] = system: Staphylococcus epidermidis NRRL B-4268
[28] = system: Klebsiella pneumoniae ATCC 27736
[29] = system: Pseudomonas aeruginosa ATCC BAA-427
[30] = system: Candida parapsilosis ATCC 22019
[31] = system: Escherichia coli ATCC 10536

- MIC [3]: 2.04 µM (≈ 4.92 µg/mL)
Compound: CC[C@H](C)[C@H](NC(=O)[C@H](CO)NC(=O)[C@H](CCCN=C(N)N)NC(=O)CNC(=O)[C@H](CCC(=O)O)NC(=O)[C@@H](N)CC(C)C)C(=O)N[C@@H](CO)C(=O)N[C@@H](CCCN=C(N)N)C(=O)N[C@H](C(=O)N[C@@H](CC(=O)O)C(=O)N[C@@H](CCC(=O)O)C(=O)N[C@@H](CC(C)C)C(=O)N[C@H](C(=O)N[C@@H](CCC(N)=O)C(=O)N[C@@H](CCC(N)=O)C(=O)N[C@@H](CCCN=C(N)N)C(=O)N[C@@H](CCC(N)=O)C(=O)N[C@@H](CCC(=O)O)C(=O)N[C@@H](CCCCN)C(=O)N[C@@H](CC(=O)O)C(=O)O)[C@@H](C)CC)[C@@H](C)CC [LEGRSISRIDELIQQRQEKD]

- MIC (Escherichia coli O157:H7): ≥ 64 µM
- MIC [4]: ≥ 64 µM
- MIC (Bacillus megaterium): 28.3 µM (≈ 50 µg/mL)
- MIC [5]: ≥ 64 µM
- MIC [6]: ≥ 64 µM
Compound: CC(C)C[C@H](NC(=O)CNC(=O)[C@H](C)NC(=O)[C@H](CCCCN)NC(=O)[C@H](CCCCN)NC(=O)[C@@H](N)CC(N)=O)C(=O)N[C@@H](Cc1ccccc1)C(=O)N[C@H](C(=O)N[C@H](C(=O)N[C@@H](CCC(N)=O)C(=O)N[C@@H](Cc1ccccc1)C(=O)N1CCC[C@H]1C(=O)N[C@@H](CCCCN)C(=O)N[C@@H](CCCCN)C(=O)N[C@@H](Cc1ccc(O)cc1)C(=O)O)C(C)C)C(C)C [NKKAGLFVVQFPKKY]
- MIC (Vibrio cholerae): ≥ 52 µM

- MIC [11]: 0.103 µM (≈ 0.25 µg/mL)
- MIC [12]: 6.57 µM (≈ 16 µg/mL)
- MIC [13]: 0.41 µM (≈ 1 µg/mL)
- MIC (Escherichia coli): 0.41 µM (≈ 1 µg/mL)
- MIC [14]: 6.57 µM (≈ 16 µg/mL)
- MIC [15]: 0.41 µM (≈ 1 µg/mL)
- MIC [16]: 105 µM (≈ 256 µg/mL)
- MIC [17]: 0.41 µM (≈ 1 µg/mL)
- MIC [18]: 0.41 µM (≈ 1 µg/mL)
- MIC [19]: 0.41 µM (≈ 1 µg/mL)
Compound: CC[C@H](C)[C@H](NC(=O)[C@@H](NC(=O)[C@@H]1CCCN1C(=O)[C@@H](NC(=O)[C@@H]1CCCN1C(=O)[C@H](CCCCN)NC(=O)[C@H](CCCCN)NC(=O)[C@H](CO)NC(=O)CN)C(C)C)[C@@H](C)CC)C(=O)N[C@@H](Cc1ccc(O)cc1)C(=O)N[C@@H](CS)C(=O)N[C@@H](CC(N)=O)C(=O)N[C@@H](CCCN=C(N)N)C(=O)N[C@@H](CCCN=C(N)N)C(=O)N[C@H](C(=O)NCC(=O)N[C@@H](CCCCN)C(=O)N[C@@H](CS)C(=O)N[C@@H](CCC(N)=O)C(=O)N[C@@H](CCCN=C(N)N)C(=O)N[C@@H](CCSC)C(=O)O)[C@@H](C)O [GSKKPVPIIYCNRRTGKCQRM]

- MIC (Cryptococcus neoformans): 8.4 µM (≈ 16.5 µg/mL)
- MIC (Staphylococcus aureus MR): 12.5 µM (≈ 24.5 µg/mL)
- MIC (Sporothrix schenckii): 6 µM (≈ 11.8 µg/mL)
- MIC (Aspergillus fumigatus): 8.4 µM (≈ 16.5 µg/mL)
- MIC (Candida albicans): 9.6 µM (≈ 18.8 µg/mL)
- MIC [25]: 5.1 µM (≈ 10 µg/mL)
- MIC [23]: 6.8 µM (≈ 13.3 µg/mL)
- MIC [26]: 6 µM (≈ 11.8 µg/mL)
- MIC [27]: 6 µM (≈ 11.8 µg/mL)
- MIC [28]: 3.2 µM (≈ 6.28 µg/mL)
- MIC [29]: 3.2 µM (≈ 6.28 µg/mL)
- MIC [30]: 1.5 µM (≈ 2.94 µg/mL)
- MIC [31]: 3 µM (≈ 5.89 µg/mL)
Compound: CC(C)C[C@H](NC(=O)[C@H](CCCCN)NC(=O)[C@H](CC(C)C)NC(=O)[C@@H](NC(=O)[C@H](CCCN=C(N)N)NC(=O)[C@H](CCCN=C(N)N)NC(=O)[C@@H](NC(=O)[C@H](Cc1c[nH]c2ccccc12)NC(=O)[C@H](CCCCN)NC(=O)[C@H](CCCN=C(N)N)NC(=O)[C@@H](NC(=O)[C@H](CCCN=C(N)N)NC(=O)[C@H](CCCN=C(N)N)NC(=O)[C@@H](N)C(C)C)C(C)C)C(C)C)C(C)C)C(=O)N[C@H](C(N)=O)C(C)C [VRRVRKWVRRVLKLV]

The next lines start with the compound.

Compound: CC[C@H](C)[C@H](NC(=O)[C@H](Cc1c[nH]c2ccccc12)NC(=O)[C@H](CCCN=C(N)N)NC(=O)[C@H](Cc1c[nH]c2ccccc12)NC(=O)[C@H](Cc1c[nH]c2ccccc12)NC(=O)[C@H](CCCCN)NC(=O)[C@@H](N)CCCN=C(N)N)C(=O)N[C@@H](CCCCN)C(=O)N[C@@H](Cc1c[nH]c2ccccc12)C(N)=O [RKWWRWIKW]
- MIC (Escherichia coli O157:H7): 1.25 µM (≈ 1.8 µg/mL)
- MIC [1]: 5 µM (≈ 7.22 µg/mL)
- MIC (Bacillus subtilis C626): 20 µM (≈ 28.9 µg/mL)
- MIC [2]: 2.5 µM (≈ 3.61 µg/mL)

Compound: CC[C@H](C)[C@H](N)C(=O)N[C@@H](CC(N)=O)C(=O)N[C@@H](Cc1c[nH]c2ccccc12)C(=O)N[C@@H](CCCCN)C(=O)N[C@@H](C)C(=O)N[C@@H](CC(C)C)C(=O)N[C@@H](CC(C)C)C(=O)N[C@@H](CC(=O)O)C(=O)N[C@@H](C)C(=O)N[C@@H](C)C(=O)N[C@@H](CCCCN)C(=O)N[C@@H](CCCCN)C(=O)N[C@H](C(=O)N[C@@H](CC(C)C)C(=O)O)C(C)C [INWKALLDAAKKVL]
- MIC [7]: ≥ 39.5 µM
- MIC [8]: ≥ 39.5 µM
- MIC [9]: ≥ 158 µM
- MIC [10]: ≥ 316 µM

Compound: CC[C@H](C)[C@H](NC(=O)[C@H](CC(C)C)NC(=O)[C@H](CO)NC(=O)[C@H](Cc1ccccc1)NC(=O)[C@H](CC(C)C)NC(=O)[C@@H](N)CO)C(=O)N[C@@H](CCCCN)C(=O)N[C@@H](C)C(=O)NCC(=O)N[C@@H](C)C(=O)N[C@@H](CCCCN)C(=O)N[C@@H](Cc1ccccc1)C(=O)N[C@@H](CC(C)C)C(=O)NCC(=O)N[C@@H](CCCCN)C(=O)N[C@@H](CC(N)=O)C(=O)N[C@@H](CC(C)C)C(=O)N[C@@H](CC(C)C)C(=O)N[C@@H](CCCCN)C(=O)N[C@@H](CCC(N)=O)C(=O)NCC(=O)N[C@@H](C)C(=O)N[C@@H](CCC(N)=O)C(=O)N[C@@H](Cc1ccc(O)cc1)C(=O)N[C@@H](C)C(=O)N[C@@H](C)C(=O)N[C@H]1CSSC[C@@H](C(=O)O)NC(=O)[C@H](CCC(=O)O)NC(=O)[C@H](CCCCN)NC(=O)[C@H](CO)NC(=O)[C@H](C(C)C)NC(=O)[C@H](CCCCN)NC1=O [SLFSLIKAGAKFLGKNLLKQGAQYAACKVSKEC]
- MIC [20]: 28.4 µM (≈ 99.9 µg/mL)
- MIC (Escherichia coli NIHJ): 3.56 µM (≈ 12.5 µg/mL)
- MIC [21]: 3.56 µM (≈ 12.5 µg/mL)
- MIC [22]: 1.78 µM (≈ 6.25 µg/mL)
- MIC [23]: 1.78 µM (≈ 6.25 µg/mL)
- MIC [24]: 0.444 µM (≈ 1.56 µg/mL)
